Results reported in ChEMBL document CHEMBL1201862, “PubChem BioAssay data set” (2004).
The source made the active and inactive calls.

Columns and labels:
[1] = biological target: T1, Leucine aminopeptidase (Plasmodium falciparum 3D7, UniProt Q8IL11); assay: P. falciparum M17LAP inhibitors, primary screen, biochemical, fluorogenic H-Leu-NHMec substrate, 1536-well (AID 1619); type: functional
T1 sequence (Q8IL11 whole entry): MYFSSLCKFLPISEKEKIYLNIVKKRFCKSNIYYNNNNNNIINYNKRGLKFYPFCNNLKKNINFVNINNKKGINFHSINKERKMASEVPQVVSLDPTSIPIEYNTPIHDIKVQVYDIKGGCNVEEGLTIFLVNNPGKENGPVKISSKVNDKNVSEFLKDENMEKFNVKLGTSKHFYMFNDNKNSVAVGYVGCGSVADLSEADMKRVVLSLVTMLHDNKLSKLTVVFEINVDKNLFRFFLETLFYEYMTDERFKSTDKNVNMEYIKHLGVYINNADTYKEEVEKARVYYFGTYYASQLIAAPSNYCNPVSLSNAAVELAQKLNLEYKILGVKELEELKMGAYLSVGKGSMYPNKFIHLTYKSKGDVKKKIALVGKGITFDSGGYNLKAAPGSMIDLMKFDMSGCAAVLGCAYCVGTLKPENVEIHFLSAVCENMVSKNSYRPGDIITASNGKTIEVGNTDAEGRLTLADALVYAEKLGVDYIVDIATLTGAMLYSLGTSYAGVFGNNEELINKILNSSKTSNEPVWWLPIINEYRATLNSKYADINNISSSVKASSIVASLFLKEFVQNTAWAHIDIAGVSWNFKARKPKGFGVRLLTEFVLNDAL

[2] = biological target: T2, CAAX prenyl protease 2 (Saccharomyces cerevisiae S288c, UniProt Q03530); type: biochemical
T2 sequence (Q03530 whole entry): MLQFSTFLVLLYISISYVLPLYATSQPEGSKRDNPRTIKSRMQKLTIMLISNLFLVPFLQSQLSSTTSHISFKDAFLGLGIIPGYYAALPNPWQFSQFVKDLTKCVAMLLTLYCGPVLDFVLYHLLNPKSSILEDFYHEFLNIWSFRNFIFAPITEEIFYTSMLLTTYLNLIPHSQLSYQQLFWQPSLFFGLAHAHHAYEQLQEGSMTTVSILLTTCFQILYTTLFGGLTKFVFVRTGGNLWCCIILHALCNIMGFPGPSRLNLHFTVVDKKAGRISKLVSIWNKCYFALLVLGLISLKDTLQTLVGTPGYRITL

[3] = biological target: T3, Mucolipin-3 (Homo sapiens, UniProt Q8TDD5); assay: Dose response cell-based high-throughput screening assay for agonists of the transient receptor potential channel ML3 (TRPML3). [Related pubchem assays: 1526, 1424, 1448 ]; type: functional
T3 sequence (Q8TDD5 whole entry): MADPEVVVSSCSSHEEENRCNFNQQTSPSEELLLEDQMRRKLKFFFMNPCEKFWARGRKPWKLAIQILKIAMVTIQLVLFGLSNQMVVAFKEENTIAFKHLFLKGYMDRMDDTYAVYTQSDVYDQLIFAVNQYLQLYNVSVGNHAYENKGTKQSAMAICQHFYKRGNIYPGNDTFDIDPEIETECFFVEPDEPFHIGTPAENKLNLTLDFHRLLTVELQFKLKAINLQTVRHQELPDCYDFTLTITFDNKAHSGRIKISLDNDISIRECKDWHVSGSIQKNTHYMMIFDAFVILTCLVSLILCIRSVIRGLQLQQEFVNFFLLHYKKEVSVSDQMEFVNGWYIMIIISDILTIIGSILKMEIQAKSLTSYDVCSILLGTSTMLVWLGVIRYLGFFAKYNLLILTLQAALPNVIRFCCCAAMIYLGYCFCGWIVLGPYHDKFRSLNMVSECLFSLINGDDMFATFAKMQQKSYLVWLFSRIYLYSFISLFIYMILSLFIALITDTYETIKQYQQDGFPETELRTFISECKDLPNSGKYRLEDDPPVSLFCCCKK

[4] = biological target: Ion channel NompC (Danio rerio, UniProt Q7T1G6); assay: Fluorescence counterscreen assay for TRPML3 agonists: dose response cell-based high-throughput screening assay to identify agonists of the transient receptor potential channel N1 (TRPN1). [Related pubchem assays: 1526, 1424, 1448 ]; type: functional
[5] = HEp-2 cell cytotoxicity, dose response, cytotoxicity control for RSV inhibitor project, HTS (AID 2410); type: functional; conditions: human respiratory syncytial virus
[6] = biological target: Cytochrome P450 2D6 (Homo sapiens, UniProt P10635);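 further: CYP2D6 member of a cytochrome P450 panel assay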
[7] = cells
[8] = biological target: T4, Heat shock factor protein 1 (Mus musculus, UniProt P38532); assay: inhibition of MG132-induced HSE-luciferase signal, confirmation, cell-based, NIH3T3, luminescence, dose retest (AID 2382); type: functional;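 further: NIH3T3 fibroblasts with HSF1-driven luciferase reporter stressed by proteasome inhibitor MG132; luminescence from HSF1-driven luciferase expression after 8 hours of MG132 stress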
T4 sequence (P38532 whole entry): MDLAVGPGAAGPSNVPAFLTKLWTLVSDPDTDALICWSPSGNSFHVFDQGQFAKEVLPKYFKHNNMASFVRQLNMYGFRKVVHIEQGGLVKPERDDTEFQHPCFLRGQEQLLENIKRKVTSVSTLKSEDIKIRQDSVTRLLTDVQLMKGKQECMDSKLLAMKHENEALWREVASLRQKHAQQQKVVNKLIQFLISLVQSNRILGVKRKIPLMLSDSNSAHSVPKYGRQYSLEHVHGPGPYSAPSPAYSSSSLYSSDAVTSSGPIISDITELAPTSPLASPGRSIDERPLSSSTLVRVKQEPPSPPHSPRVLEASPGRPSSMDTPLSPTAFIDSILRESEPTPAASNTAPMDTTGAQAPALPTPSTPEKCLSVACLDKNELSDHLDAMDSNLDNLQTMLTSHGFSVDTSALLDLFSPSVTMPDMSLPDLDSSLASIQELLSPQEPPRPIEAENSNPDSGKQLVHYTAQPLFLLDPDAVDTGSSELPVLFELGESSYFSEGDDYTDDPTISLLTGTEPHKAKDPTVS

[9] = biological target: T5, Calpain-2 catalytic subunit (Sus scrofa, UniProt P43367); assay: pig calpain II inhibitor potency, dose response, biochemical, fluorogenic peptide substrate (AID 1420); type: functional
T5 sequence (P43367 whole entry): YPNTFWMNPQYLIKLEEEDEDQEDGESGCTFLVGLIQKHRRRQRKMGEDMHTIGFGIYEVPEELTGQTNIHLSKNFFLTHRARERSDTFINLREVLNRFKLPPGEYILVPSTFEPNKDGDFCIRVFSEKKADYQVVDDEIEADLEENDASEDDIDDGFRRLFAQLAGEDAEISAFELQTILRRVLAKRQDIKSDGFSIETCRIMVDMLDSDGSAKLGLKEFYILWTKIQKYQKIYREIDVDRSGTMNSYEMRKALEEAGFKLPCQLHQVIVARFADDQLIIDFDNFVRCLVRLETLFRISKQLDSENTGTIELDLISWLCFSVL

[10] = biological target: T6, Estrogen receptor (Homo sapiens, UniProt P03372);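 further: potency for inhibiting coactivator peptide recruitment to the receptor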
T6 sequence (P03372 whole entry): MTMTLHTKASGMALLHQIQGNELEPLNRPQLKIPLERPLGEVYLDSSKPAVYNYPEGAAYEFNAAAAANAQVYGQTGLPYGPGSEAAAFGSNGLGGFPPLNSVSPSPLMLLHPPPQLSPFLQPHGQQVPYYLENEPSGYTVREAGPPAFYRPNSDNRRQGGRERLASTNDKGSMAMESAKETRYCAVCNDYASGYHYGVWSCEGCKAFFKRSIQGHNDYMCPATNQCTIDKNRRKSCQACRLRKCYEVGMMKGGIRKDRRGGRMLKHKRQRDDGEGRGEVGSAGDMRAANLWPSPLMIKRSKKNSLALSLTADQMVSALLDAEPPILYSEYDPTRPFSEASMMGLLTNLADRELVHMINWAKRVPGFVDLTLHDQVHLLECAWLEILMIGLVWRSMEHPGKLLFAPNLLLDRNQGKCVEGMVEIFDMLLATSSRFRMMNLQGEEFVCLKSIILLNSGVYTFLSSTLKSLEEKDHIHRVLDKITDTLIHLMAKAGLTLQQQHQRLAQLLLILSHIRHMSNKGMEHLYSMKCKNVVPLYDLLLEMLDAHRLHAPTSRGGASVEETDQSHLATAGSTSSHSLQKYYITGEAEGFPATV

[11] = system: H9c2; assay: cells; type: functional, cell-based; conditions: Rattus norvegicus, H9c2, Myocardium;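 further: confirmatory concentration-response retest of ultra-high-throughput screening hits for modulation of myocardial damage; cell death induced by hydrogen peroxide oxidative stress; compound pretreatment for 60 min then peroxide exposure for 2 h; potency is for protecting the cells against peroxide damage rather than for killing them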
[12] = A Cell Based Secondary Assay To Explore Cytotoxicity of Compounds that Sensitize Mycobacterium Tuberculosis to Beta-Lactam Antibiotics.; type: functional
[13] = biological target: G-protein coupled receptor 55 (Homo sapiens, UniProt Q9Y2T6); assay: GPR55 antagonists blocking LPI-driven arrestin recruitment, primary screen, imaging, U2OS, beta-arrestin-GFP, LPI agonist (AID 2013); type: functional;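 further: antagonist potency measured as reduced agonist-driven arrestin aggregation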
[14] = biological target: FAD-linked sulfhydryl oxidase ALR (Homo sapiens, UniProt P55789); assay: inhibitors of human ALR sulfhydryl oxidase, dose response, biochemical, H2O2 detection, luminescence, cherry-pick (AID 493248)
[15] = biological target: DNA dC->dU-editing enzyme APOBEC-3G (Homo sapiens, UniProt Q9HC16); type: functional;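 further: Dose-response counterscreen measuring inhibition of APOBEC3G DNA deaminase activity, run while confirming APOBEC3A inhibitors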
[16] = biological target: DNA dC->dU-editing enzyme APOBEC-3A (Homo sapiens, UniProt P31941); assay: Dose Response confirmation of small molecule APOBEC3A DNA Deaminase Inhibitors via a fluorescence-based single-stranded DNA deaminase assay. [Related pubchem assays (depositor defined):AID493011, AID493024]; type: functional
[17] = biological target: T7, Ubiquitin-conjugating enzyme E2 N (Homo sapiens, UniProt P61088); type: functional;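 further: Dose-response confirmation in a TR-FRET assay detecting UBC13-driven polyubiquitin chain formation, inhibition measured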
T7 sequence (P61088 whole entry): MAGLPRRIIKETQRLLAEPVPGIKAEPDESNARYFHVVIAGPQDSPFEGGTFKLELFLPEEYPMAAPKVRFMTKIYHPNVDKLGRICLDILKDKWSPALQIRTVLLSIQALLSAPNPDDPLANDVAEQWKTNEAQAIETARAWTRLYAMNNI

[18] = inhibitors of intracellular T. cruzi replication, confirmation, NIH3T3 host cells, beta-gal luminescence (AID 2044); type: functional, cell-based;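 further: intracellular parasites grown in NIH/3T3 mouse fibroblasts as host cells; luminescent beta-galactosidase reporter signal from transgenic T. cruzi replicating inside host cells; inhibitors lower the luminescence signal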
[19] = biological target: T8, DNA repair protein RAD52 homolog (Homo sapiens, UniProt P43351); type: functional, biochemical
T8 sequence (P43351 whole entry): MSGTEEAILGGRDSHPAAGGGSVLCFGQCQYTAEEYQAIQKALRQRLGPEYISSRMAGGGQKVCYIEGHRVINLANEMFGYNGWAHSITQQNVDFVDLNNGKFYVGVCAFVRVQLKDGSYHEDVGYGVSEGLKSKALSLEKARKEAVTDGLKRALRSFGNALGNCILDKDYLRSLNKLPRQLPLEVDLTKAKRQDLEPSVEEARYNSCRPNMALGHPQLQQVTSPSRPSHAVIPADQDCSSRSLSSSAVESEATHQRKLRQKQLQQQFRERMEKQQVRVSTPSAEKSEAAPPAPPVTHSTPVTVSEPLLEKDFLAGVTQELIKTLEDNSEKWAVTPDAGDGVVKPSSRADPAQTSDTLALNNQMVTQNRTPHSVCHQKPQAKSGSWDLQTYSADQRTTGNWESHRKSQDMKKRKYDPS

[20] = cytotoxicity toward NIH3T3 fibroblasts, dose response, counter-screen, cell-based, ATP luminescence, mouse fibroblasts (AID 2010); type: functional;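 further: cells exposed to compound for about 90 hours before reading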
[21] = system: INS1; assay: beta cell apoptosis inhibitors, cytokine rescue, dose response, luminescence, retest (AID 449756); type: functional, cell-based; conditions: Rattus norvegicus;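 further: cell death triggered by IL-1 beta plus TNF-alpha plus IFN-gamma mixture; protective hits raise ATP signal compared with cytokine alone wells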

DNA dC->dU-editing enzyme APOBEC-3A, sequence (P31941 whole entry): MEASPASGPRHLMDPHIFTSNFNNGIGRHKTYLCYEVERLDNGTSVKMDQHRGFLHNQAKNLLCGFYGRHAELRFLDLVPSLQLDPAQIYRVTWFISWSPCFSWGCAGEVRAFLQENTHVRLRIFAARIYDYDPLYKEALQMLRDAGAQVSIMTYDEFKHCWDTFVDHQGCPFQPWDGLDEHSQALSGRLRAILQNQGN
DNA dC->dU-editing enzyme APOBEC-3G, sequence (Q9HC16 whole entry): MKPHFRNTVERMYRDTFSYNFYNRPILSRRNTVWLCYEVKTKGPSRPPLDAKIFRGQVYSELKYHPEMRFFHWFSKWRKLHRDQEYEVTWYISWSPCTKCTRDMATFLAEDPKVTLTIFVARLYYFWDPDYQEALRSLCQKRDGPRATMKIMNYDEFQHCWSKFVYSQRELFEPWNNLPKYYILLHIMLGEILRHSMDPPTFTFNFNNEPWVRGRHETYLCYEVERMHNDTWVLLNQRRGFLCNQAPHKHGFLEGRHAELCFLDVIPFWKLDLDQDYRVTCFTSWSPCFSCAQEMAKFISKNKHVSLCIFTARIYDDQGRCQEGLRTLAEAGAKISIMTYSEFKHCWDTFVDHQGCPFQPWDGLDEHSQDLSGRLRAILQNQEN
Ion channel NompC, sequence (Q7T1G6 whole entry): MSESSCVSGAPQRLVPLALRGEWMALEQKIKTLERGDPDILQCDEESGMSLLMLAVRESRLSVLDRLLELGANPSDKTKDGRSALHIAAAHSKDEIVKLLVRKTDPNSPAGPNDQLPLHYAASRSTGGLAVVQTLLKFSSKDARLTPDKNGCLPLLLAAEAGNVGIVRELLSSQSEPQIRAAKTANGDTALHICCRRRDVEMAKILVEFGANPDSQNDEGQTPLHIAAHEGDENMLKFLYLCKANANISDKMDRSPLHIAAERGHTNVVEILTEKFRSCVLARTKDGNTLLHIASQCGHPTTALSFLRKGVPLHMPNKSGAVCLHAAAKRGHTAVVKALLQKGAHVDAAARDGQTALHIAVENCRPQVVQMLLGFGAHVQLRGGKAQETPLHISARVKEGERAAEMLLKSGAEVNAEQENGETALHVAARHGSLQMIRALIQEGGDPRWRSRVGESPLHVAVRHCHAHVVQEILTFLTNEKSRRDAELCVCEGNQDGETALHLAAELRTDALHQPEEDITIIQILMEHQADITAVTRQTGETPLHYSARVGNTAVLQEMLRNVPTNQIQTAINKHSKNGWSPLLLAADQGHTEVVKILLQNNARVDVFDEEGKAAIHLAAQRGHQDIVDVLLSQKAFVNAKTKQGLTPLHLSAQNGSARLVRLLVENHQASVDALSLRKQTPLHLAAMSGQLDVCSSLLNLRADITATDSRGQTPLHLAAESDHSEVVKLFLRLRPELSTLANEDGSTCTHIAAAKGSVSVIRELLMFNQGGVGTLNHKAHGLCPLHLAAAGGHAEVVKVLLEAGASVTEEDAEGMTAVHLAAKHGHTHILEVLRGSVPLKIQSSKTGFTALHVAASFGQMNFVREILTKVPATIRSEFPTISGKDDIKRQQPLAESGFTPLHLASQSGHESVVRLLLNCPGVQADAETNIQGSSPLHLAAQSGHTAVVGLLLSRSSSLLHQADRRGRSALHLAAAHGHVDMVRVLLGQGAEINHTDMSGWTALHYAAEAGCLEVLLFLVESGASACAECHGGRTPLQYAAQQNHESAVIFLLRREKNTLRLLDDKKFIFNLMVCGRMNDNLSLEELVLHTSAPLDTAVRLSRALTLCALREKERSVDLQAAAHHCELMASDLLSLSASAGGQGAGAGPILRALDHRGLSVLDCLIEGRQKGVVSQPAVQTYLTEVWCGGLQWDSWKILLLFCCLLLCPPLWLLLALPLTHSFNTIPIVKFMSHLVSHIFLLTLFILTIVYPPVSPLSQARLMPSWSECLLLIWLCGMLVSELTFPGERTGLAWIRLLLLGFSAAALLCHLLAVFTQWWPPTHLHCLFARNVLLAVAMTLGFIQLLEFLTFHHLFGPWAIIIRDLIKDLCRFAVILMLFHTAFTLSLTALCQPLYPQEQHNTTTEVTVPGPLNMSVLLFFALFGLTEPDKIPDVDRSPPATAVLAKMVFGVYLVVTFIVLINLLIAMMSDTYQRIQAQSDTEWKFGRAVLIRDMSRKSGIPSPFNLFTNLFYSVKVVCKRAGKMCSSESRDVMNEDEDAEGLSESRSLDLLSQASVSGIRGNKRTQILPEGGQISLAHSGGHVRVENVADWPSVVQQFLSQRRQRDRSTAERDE
Cytochrome P450 2D6, sequence (P10635 whole entry): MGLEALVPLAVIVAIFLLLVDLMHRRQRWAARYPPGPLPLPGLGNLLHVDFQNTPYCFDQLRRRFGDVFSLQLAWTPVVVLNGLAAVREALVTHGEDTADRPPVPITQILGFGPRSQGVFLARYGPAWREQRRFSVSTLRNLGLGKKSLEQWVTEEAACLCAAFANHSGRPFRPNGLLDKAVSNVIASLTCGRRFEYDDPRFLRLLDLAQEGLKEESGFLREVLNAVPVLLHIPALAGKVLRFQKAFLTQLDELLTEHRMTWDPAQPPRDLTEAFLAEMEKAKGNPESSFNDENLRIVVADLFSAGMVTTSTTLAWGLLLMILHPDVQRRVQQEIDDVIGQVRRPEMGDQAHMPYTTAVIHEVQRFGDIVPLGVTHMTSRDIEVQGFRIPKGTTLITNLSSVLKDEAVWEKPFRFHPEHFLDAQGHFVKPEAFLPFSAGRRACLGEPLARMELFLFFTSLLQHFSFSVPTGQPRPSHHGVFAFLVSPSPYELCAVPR
G-protein coupled receptor 55, sequence (Q9Y2T6 whole entry): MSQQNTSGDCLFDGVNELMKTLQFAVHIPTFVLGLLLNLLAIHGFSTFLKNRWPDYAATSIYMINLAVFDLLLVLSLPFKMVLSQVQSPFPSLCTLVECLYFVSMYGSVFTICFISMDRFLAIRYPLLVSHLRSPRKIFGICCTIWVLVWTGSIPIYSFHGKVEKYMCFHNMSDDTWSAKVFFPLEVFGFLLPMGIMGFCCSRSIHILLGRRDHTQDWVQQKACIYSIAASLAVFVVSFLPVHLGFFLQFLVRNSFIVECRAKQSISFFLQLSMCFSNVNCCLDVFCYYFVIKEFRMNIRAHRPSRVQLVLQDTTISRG
FAD-linked sulfhydryl oxidase ALR, sequence (P55789 whole entry): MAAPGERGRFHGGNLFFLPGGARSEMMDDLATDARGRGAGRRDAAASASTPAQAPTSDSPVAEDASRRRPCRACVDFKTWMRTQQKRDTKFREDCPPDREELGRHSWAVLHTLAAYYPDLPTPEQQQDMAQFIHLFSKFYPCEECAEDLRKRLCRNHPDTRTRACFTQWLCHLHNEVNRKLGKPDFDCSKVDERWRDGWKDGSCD

## O=C(N/N=C/c1ccccc1C(=O)O)c1ccc(COc2cccc3cccnc23)cc1
[1]
  IC50: 18.4 µM (active)

## CC1CCN(Cc2c(C(=O)N/N=C/c3cccc(C(F)(F)F)c3)nnn2-c2nonc2N)CC1
[2]
  AC50: 0.254 µM (active)

## Cc1cc(C)c(S(=O)(=O)c2c(C)cccc2C)c(OCC(C)C)n1
[3]
  EC50: 4.35 µM (active)
[4]
  EC50: > 29.9 µM (not active)

## O=C(CN1CCN(S(=O)(=O)c2ccc(F)cc2)CC1)Nc1ccc(Cl)c(C(F)(F)F)c1
[5]
  CC50: 4.99 µM (active)
[6]
  AC50: 39.8 µM (inconclusive)
[3]
  EC50: 3.5 µM (active)
[4]
  EC50: > 29.9 µM (not active)

## Cc1cccc(C)c1-n1c(C)cc(/C=C2\NC(=O)NC2=O)c1C
[5]
  CC50: 24.6 µM (active)
[7]
  IC50: 8.7 µM (active)
[8]
  EC50: > 195 µM (not active)

## O=S(=O)(N1CCCCC1)N1CCN(c2cc(Cl)ccc2Cl)CC1
[9]
  IC50: 4.07 µM (not active)
[3]
  EC50: 2.07 µM (active)
[4]
  EC50: > 29.9 µM (not active)

## COc1ccc(-n2nc(C(=O)NCC(=O)N(C)Cc3ccccc3)c3ccccc3c2=O)cc1
[2]
  AC50: 70.8 µM (active)

## COc1ccc(C)cc1-n1nnnc1SCC(=O)NC(=O)NCc1ccco1
[10]
  IC50: 9.48 µM (active)

## COc1ccc(Br)cc1/C=N/NC(=O)CNC(=O)/C=C/c1ccccc1
[11]
  IC50: 15.3 µM (active)
[12]
  CC50: 32.1 µM (active)

## C/C(N)=C(/C#N)C(=O)COC(=O)c1cccc(C)c1O
[7]
  IC50: 9.45 µM (active)

## CCc1ccccc1N(CC)C(=O)CCc1nc(-c2ccc(C)cc2)no1
[13]
  IC50: 1.06 µM (active)

## COc1ccc(OC)c(S(=O)(=O)N2CCCc3ccccc32)c1
[3]
  EC50: 3.58 µM (active)
[4]
  EC50: > 29.9 µM (not active)

## Cc1[nH]c2ccccc2c1N=Nc1cccc(C(=O)O)c1
[14]
  AC50: 0.663 µM (active)
[1]
  IC50: 80.8 µM (active)

## CCn1c(SCC(=O)NC2CCCCC2)nc2ccccc2c1=O
[15]
  IC50: 4.97 µM (active)
[16]
  IC50: 5.15 µM (active)

## CCN1C(=NCCN2CCOCC2)N[C@@H](c2ccccc2)C(C(=O)OC)=C1C
[15]
  IC50: 4.54 µM (active)
[16]
  IC50: 4.2 µM (active)

## CCN1/C(=C\C(C)=O)Sc2ccc(OC)cc21
[15]
  IC50: 2.89 µM (active)
[16]
  IC50: 2.69 µM (active)

## O=S(=O)(c1ccccc1)N1CCC(c2nc(O)c3nnn(Cc4ccc5c(c4)OCCO5)c3n2)CC1
[5]
  CC50: 28.4 µM (active)
[7]
  IC50: 18.4 µM (active)

## Cc1ccc(C(=O)N/C(=C\c2ccc(-c3ccc(Cl)cc3)o2)C(=O)NCCCN(C)C)cc1
[17]
  IC50: > 20 µM (inactive)
[18]
  EC50: 1.63 µM (active)
[19]
  AC50: 18.5 µM (active)
[20]
  EC50: > 30 µM (not active)
[21]
  AC50: 7.74 µM (active)
[12]
  CC50: 11.2 µM (active)

## O=C(CCNc1ccc(F)cc1)c1cccc([N+](=O)[O-])c1
[12]
  CC50: > 40 µM (active)
